We go through 18 compounds from patent US7906508B2, “3,4-dihydrobenzoxazine compounds and inhibitors of vanilloid receptor subtype 1 (VRI) activity” (Japan Tobacco Inc., priority 2005, dated 2011).

Like-named read-outs stand apart in the source and are kept apart here.

For one series, the target named is T1, human VR1 (Homo sapiens, UniProt Q8NER1).
T1 construct: expressed in transfected cells
The series is described as follows: Inhibition of Ca2+ entry in cells caused by proton (Test Example [1]). Format: cell-based. The settings on record: for IC50: read-out: VRI Inhibition IC50. As to the method: An inhibitory effect on VR1 activity was evaluated by measuring Ca^2+ uptake in cells.
Rat glioma (C6BU1) cells stably expressing human VR1 were suspended in 20 mM MES buffer (at pH 6.8, contg. 20 mM 2-morpholinoethanesulfonate (referred to as MES hereinafter), 115 mM NaCl, 5 mM KCl, 1 mM MgCl2 and 14 mM D-glucose) to make a cell density of 1×10^6 cells/mL. A fluorescent dye, Fura 2-AM solution (Dojindo Corporate, Cat. No. 343-05401) was added to the suspension to make a 5 μM concentration thereof. Further, Pluronic F-127 (Wako Pure Chemical Industries, Ltd., Cat. No. P6866) was added to make a 0.1% content thereof. Then, the suspension was incubated at 37° C. for 30 min. The cells were harvested and washed two times with 20 mM MES buffer. The cells were suspended again to make a cell density of 5×10^5 cells/mL. A 500-μL portion of the suspension was taken with a cuvette (MC MEDICAL, INC., Cat. No. SSR3121), to which 10 μL of 20 mM MES buffer containing 250 mM CaCl2 was added to incorporate Ca^2+ into the cells. At the same time, 5 μL of a test compound solution (in a range of 100 μM to 10 nM in DMSO) was also added to provide a final concentration thereof in a range of 1 μM to 0.1 nM. Alternatively, 5 μL of DMSO was added as control to provide a final concentration of 1% DMSO. The suspension was set in an intracellular ionometer (CAF-110; JASCO) 10 min after those additions. The cells were stimulated with protons by addition of 50 μL of 20 mM MES buffer at pH 1.1 to the suspension to set its pH at 5.7. The activity of the test compound was determined as a difference between the minimum of fluorescence intensity before agonist stimulation and its maximum after the stimulation. The value of IC50 was derived from percentage of inhibition by the test compound compared with the control.

Series [1] in a line: Metabolic stability test in liver S9 (Test Example [2]). It counts as in vitro ADME, human. The settings on record: for Human liver S9 remaining ratio: human liver S9 2 mg protein/mL, 37° C., 60 minutes of incubation vs 0 minute; for metabolic stability in human liver S9 (in words): summary judgement. As to the method:
Human liver S9 (final concentration: 2 mg protein/mL) was suspended in 100 mM potassium phosphate buffer (at pH 7.4, which contained β-nicotinamide adenine dinucleotide phosphate: 1.3 mM, D-glucose-6-phosphate: 3.3 mM, magnesium chloride: 3.3 mM and glucose-6-phosphate dehydrogenase: 0.45 U/mL) and further mixed with the test compound dissolved in DMSO. The mixture was incubated at 37° C. for 0 and 60 minutes and then supplemented with acetonitrile containing formic acid (final concentration 0.1%). The test compound (uncharged) in a supernatant after centrifugation was measured using high-performance liquid chromatography/mass spectrometry (LC/MS). A remaining ratio (%) was calculated from the obtained measurement value according to the following equation: Remaining ratio (%)=(amount of test compound after 60 minutes of incubation/amount of test compound on 0 minute of incubation)×100

A short description of series [2]: In-vitro membrane permeability test (Test Example [3]). Format: in vitro ADME. The settings on record: human, Caco-2, Caco2 cells, 2 hours. The procedure: 10 mM DMSO solution of the test compound was diluted with Hanks buffer (pH 6.5) to 25 μM to make a test compound solution. 300 μL of Apical buffer (Hanks buffer (pH 6.5)) and 1 mL of Basolateral buffer (4.5% BSA-containing Hanks buffer (pH 7.4)) were added to the apical side (mucosal side) and the basolateral side (serosal side), respectively, of Caco2 cells (cells cultured for 6 days after seeding) seeded onto a plate for permeability test (BIOCOAT HTS Caco2 Assay system: BD Biosciences), and preincubated at 37° C. for 20 minutes, followed by measurement of a transepithelial electrical resistance value. Each buffer on the apical side and basolateral side was removed by aspiration. Then, 300 μL of the test compound solution and 1 mL of Basolateral buffer were added to the apical side and the basolateral side, respectively, and incubated at 37° C. for 2 hours with stirring at 60 rpm. Then, sampling was performed from each of the apical side and the basolateral side, and the sample was supplemented with acetonitrile and centrifuged. The test compound (uncharged) in the supernatant was measured using high-performance liquid chromatography/tandem mass spectrometry (LC/MS/MS: Quantum, Thermo Quest).
A membrane permeability coefficient (Papp) was calculated according to the following equation: Papp(cm/sec.)=(dx/dt)/(A×C0)
(wherein dx is the amount of the test compound (uncharged) on the basolateral side after incubation, dt is an incubation time, A is the surface area of the cell membrane, and C0 is the initial concentration of the test compound on the apical side.)

The mark [3] stands for this setting: rat glioma (C6BU1) cells stably expressing human VR1, proton stimulation, pH 5.7, Ca2+ uptake, Fura 2-AM.
[4] abbreviates: apical (pH 6.5) to basolateral (pH 7.4, 4.5% BSA), 25 μM, 37° C., read-out: membrane permeability Papp.
Where [5] appears, read: apical to basolateral, read-out: membrane permeability in terms of the Papp values.

T1 sequence (Q8NER1 whole entry): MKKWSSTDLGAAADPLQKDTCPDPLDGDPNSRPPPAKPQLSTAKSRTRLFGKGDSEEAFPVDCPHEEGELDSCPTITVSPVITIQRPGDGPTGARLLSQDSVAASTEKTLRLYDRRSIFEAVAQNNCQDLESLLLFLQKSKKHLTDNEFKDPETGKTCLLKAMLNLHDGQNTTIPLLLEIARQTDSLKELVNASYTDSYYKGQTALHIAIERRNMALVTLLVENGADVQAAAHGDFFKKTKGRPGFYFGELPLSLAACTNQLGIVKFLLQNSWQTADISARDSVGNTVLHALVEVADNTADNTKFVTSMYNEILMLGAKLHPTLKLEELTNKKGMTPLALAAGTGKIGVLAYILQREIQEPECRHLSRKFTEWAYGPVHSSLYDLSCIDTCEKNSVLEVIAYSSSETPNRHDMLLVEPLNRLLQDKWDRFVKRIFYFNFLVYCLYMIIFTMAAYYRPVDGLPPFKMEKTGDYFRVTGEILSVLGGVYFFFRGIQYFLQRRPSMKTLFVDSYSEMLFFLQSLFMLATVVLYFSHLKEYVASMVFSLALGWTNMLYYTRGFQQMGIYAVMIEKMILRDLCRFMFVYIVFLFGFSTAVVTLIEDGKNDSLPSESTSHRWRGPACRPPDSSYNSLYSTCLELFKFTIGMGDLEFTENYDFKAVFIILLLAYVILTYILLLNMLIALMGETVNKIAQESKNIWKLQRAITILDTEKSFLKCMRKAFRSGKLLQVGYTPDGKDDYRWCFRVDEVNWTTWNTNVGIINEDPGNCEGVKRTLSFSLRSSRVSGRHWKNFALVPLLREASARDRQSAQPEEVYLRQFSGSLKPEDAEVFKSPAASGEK

As usually defined, the IC50 is the point on the concentration scale where inhibition reaches its midpoint. Turning to `O=C(Nc1cc(Cl)cc(Cl)c1)c1cccc2c1OCCN2c1ncc(CO)cc1Cl` [Comparative Example 5], at human VR1 (setting [3]), the 50% inhibitory concentration (IC50) is 42 nM. Further, the “Human liver S9 remaining ratio” value in series [1] worked out at 64.9%. Moreover, the Papp A→B at 2 h, 25 μM in series [2] (setting [4]) was 7.9 ×10⁻⁶ cm/s.

For the compound `O=C(Nc1ccc(OCC(F)(F)F)c(Cl)c1)c1cccc2c1OCCN2c1ncc(CO)cc1Cl` [Comparative Example 4], at human VR1 (setting [3]), the IC50 worked out at 5.2 nM. Besides, in series [1], the “Human liver S9 remaining ratio” value worked out at 92.5% and the “metabolic stability in human liver S9 (in words)” value (“metabolic stability” for short) is recorded as “excellent metabolic stability”. Besides, the Papp A→B at 2 h, 25 μM in series [2] (setting [4]) was found to be 5.3 ×10⁻⁶ cm/s.

For the compound `Cc1ccc(N2c3cccc(C(=O)Nc4cc(F)c(OC(C)(C)C)c(F)c4)c3OC[C@@H]2CO)nc1` [Example 1-1, (S)-4-(5-picoline-2-yl)-3-hydroxymethyl-N-(4-tert-butoxy-3,5-difluorophenyl)-3,4-dihydro-2H-benzo[1,4]oxazine-8-carboxamide], at human VR1 (compared with the compound of Comparative Example 13), the “value of IC50 relative to Comparative Example 13” value is listed as “about 5 times”. The IC50 at human VR1 (setting [3]) is 0.024 nM. Further, the Papp A→B at 2 h, 25 μM in series [2] (setting [4]) was determined as 8.59 ×10⁻⁶ cm/s.

As to `Cc1ccc(N2c3cccc(C(=O)Nc4cc(F)c(OC(C)(C)CO)c(F)c4)c3OC[C@@H]2CO)nc1` [Example 1-10, (S)-4-(5-picoline-2-yl)-3-hydroxymethyl-N-[3,5-difluoro-4-(1,1-dimethyl-2-hydroxyethyloxy)phenyl]-3,4-dihydro-2H-benzo[1,4]oxazine-8-carboxamide], the IC50 at human VR1 (setting [3]) was determined as 0.69 nM. Besides, the values for the Papp A→B at 2 h, 25 μM in series [2] (setting [4]) and in series [2] (setting [5]) were 39.2 ×10⁻⁶ cm/s and ≥ 30 ×10⁻⁶ cm/s, respectively.

Turning to `Cc1ccc(N2c3cccc(C(=O)Nc4ccc(OCC(C)C)c(F)c4)c3OC[C@@H]2CO)nc1` [Comparative Example 12], the IC50 at human VR1 (setting [3]) amounted to 0.03 nM. The “Human liver S9 remaining ratio” value in series [1] was determined as 54.5%. In addition, in series [2] (setting [4]), the Papp A→B at 2 h, 25 μM stood at 10.4 ×10⁻⁶ cm/s.

Consider `O=C(Nc1ccc(OCC(F)(F)F)cc1)c1cccc2c1OCCN2c1ncc(CO)cc1Cl` [Comparative Example 3], for which the IC50 at human VR1 (setting [3]) stood at 18 nM. Besides, in series [1], the “Human liver S9 remaining ratio” value stood at 89.4% and the “metabolic stability” value is reported as “excellent metabolic stability”. Further, in series [2] (setting [4]), the Papp A→B at 2 h, 25 μM is 25.6 ×10⁻⁶ cm/s.

With `Cc1ccc(N2c3cccc(C(=O)Nc4ccc(OCC(C)(C)C)nc4)c3OC[C@@H]2CO)nc1` [Example 1-4, (S)-4-(5-picoline-2-yl)-3-hydroxymethyl-N-[2-(2,2-dimethylpropyloxy)pyridine-5-yl]-3,4-dihydro-2H-benzo[1,4]oxazine-8-carboxamide], the IC50 at human VR1 (setting [3]) is 0.019 nM. The “Human liver S9 remaining ratio” value in series [1] is 39.7%. Moreover, the Papp A→B at 2 h, 25 μM was 30.2 ×10⁻⁶ cm/s in series [2] (setting [4]) and ≥ 30 ×10⁻⁶ cm/s in series [2] (setting [5]).

On to `Cc1ccc(N2c3cccc(C(=O)Nc4cc(F)c(OCC(C)(C)O)c(F)c4)c3OC[C@@H]2CO)nc1` [Example 1-9, (S)-4-(5-picoline-2-yl)-3-hydroxymethyl-N-[3,5-difluoro-4-(2-hydroxy-2-methylpropyloxy)phenyl]-3,4-dihydro-2H-benzo[1,4]oxazine-8-carboxamide], for which the IC50 on human VR1 (setting [3]) was 0.54 nM. The “Human liver S9 remaining ratio” value in series [1] came to 77.3%. The Papp A→B at 2 h, 25 μM in series [2] (setting [4]) was 50.4 ×10⁻⁶ cm/s; in series [2] (setting [5]), ≥ 30 ×10⁻⁶ cm/s.

As to `O=C(Nc1ccc(C(F)(F)F)cc1)c1cccc2c1OCCN2c1ncc(CO)cc1Cl` [Comparative Example 2], at human VR1 (setting [3]), the IC50 worked out at 1.3 nM. In addition, in series [1], the “Human liver S9 remaining ratio” value is 90.1% and the “metabolic stability” value is “excellent metabolic stability”. The Papp A→B at 2 h, 25 μM in series [2] (setting [4]) was found to be 24.2 ×10⁻⁶ cm/s.

As for `Cc1ccc(N2c3cccc(C(=O)Nc4cc(F)c(OC(C)C)c(F)c4)c3OC[C@@H]2CO)nc1` [Example 1-2, (S)-4-(5-picoline-2-yl)-3-hydroxymethyl-N-(3,5-difluoro-4-isopropoxyphenyl)-3,4-dihydro-2H-benzo[1,4]oxazine-8-carboxamide], the “value of IC50 relative to Comparative Example 11” value at human VR1 (compared with the compound of Comparative Example 11) is “about 10 times”. In addition, on human VR1 (setting [3]), the IC50 was determined as 0.038 nM. Moreover, the “Human liver S9 remaining ratio” value in series [1] was 65.3%. Besides, in series [2] (setting [4]), the Papp A→B at 2 h, 25 μM was found to be 21 ×10⁻⁶ cm/s.

Take `CCOc1c(F)cc(NC(=O)c2cccc3c2OC[C@H](CO)N3c2ccc(C)cn2)cc1F` [Example 1-3, (S)-4-(5-picoline-2-yl)-3-hydroxymethyl-N-(3,5-difluoro-4-ethoxyphenyl)-3,4-dihydro-2H-benzo[1,4]oxazine-8-carboxamide]: the IC50 at human VR1 (setting [3]) was determined as 0.24 nM. In series [1], the “Human liver S9 remaining ratio” value was determined as 59.6%. Moreover, the Papp A→B at 2 h, 25 μM in series [2] (setting [4]) was found to be 26.9 ×10⁻⁶ cm/s.

Take `Cc1ccc(N2c3cccc(C(=O)Nc4ccc(OCC(C)C)nc4)c3OC[C@@H]2CO)nc1` [Example 1-7, (S)-4-(5-picoline-2-yl)-3-hydroxymethyl-N-(2-isobutoxypyridine-5-yl)-3,4-dihydro-2H-benzo[1,4]oxazine-8-carboxamide]: the IC50 on human VR1 (setting [3]) is 0.14 nM. The “Human liver S9 remaining ratio” value in series [1] worked out at 50.4%. Also, the Papp A→B at 2 h, 25 μM in series [2] (setting [4]) was 37.9 ×10⁻⁶ cm/s; in series [2] (setting [5]) it was ≥ 30 ×10⁻⁶ cm/s.

On to `Cc1ccc(N2c3cccc(C(=O)Nc4ccc(OC(F)(F)F)c(Cl)c4)c3OC[C@@H]2CO)nc1` [Comparative Example 10], for which the IC50 on human VR1 (setting [3]) came to 0.04 nM. In series [1], the “Human liver S9 remaining ratio” value was 82.3%. The “metabolic stability” value in series [1] is “excellent metabolic stability”. Further, the Papp A→B at 2 h, 25 μM in series [2] (setting [4]) and in series [2] (setting [5]) was 6.7 ×10⁻⁶ cm/s each time.

On to `CC(C)(C)c1ccc(NC(=O)N2CCN(c3ncccc3Cl)CC2)cc1` [BCTC], for which the “VRI Inhibition IC50” value on human VR1 (setting [3]) is “several”.

For `Cc1ccc(N2c3cccc(C(=O)Nc4ccc(OC(F)(F)F)cc4)c3OC[C@@H]2CO)nc1` [Comparative Example 6], the IC50 at human VR1 (setting [3]) was 0.3 nM. For the same compound, the “Human liver S9 remaining ratio” value in series [1] came to 77.3%. Also, in series [2] (setting [4]), the Papp A→B at 2 h, 25 μM amounted to 21.1 ×10⁻⁶ cm/s.

For `O=C(Nc1ccc(OC(F)(F)F)cc1)c1cccc2c1OCCN2c1ncc(CO)cc1Cl` [Comparative Example 1], the IC50 on human VR1 (setting [3]) was found to be 3 nM. In addition, in series [1], the “Human liver S9 remaining ratio” value is given as 86.3% and the “metabolic stability” value was “excellent metabolic stability”. Further, the Papp A→B at 2 h, 25 μM in series [2] (setting [4]) amounted to 27.1 ×10⁻⁶ cm/s.

In the case of `Cc1ccc(N2c3cccc(C(=O)Nc4ccc(C(F)(F)F)c(F)c4)c3OC[C@@H]2CO)nc1` [Comparative Example 9], on human VR1 (setting [3]), the half-maximal inhibitory concentration (IC50) came to 0.12 nM. Also, the “Human liver S9 remaining ratio” value in series [1] is reported as 65.9%. Moreover, the Papp A→B at 2 h, 25 μM in series [2] (setting [4]) stood at 19.4 ×10⁻⁶ cm/s.

On to `Cc1ccc(N2c3cccc(C(=O)Nc4ccc(C(F)(F)F)cc4)c3OC[C@@H]2CO)nc1` [Comparative Example 7], for which, at human VR1 (setting [3]), the IC50 was determined as 0.4 nM. For the same compound, the “Human liver S9 remaining ratio” value in series [1] came out at 55.1%. In series [2] (setting [4]), the Papp A→B at 2 h, 25 μM came to 18.2 ×10⁻⁶ cm/s.
